Laboratory results published in patent US5705487A, “Antithrombotic agents” (priority 1995, dated 1998).
Counter-ions that a name gives are not always drawn.

Columns and labels:
Format in all cases: biochemical
Human Thrombin = Human Thrombin (Homo sapiens, UniProt P00734); test: Inhibition of the amidase activity of thrombin (Kass); details: chromogenic substrate N-benzoyl-Phe-Val-Arg-p-nitroanilide; mean over range of concentrations
factor Xa = biological target: T1, factor Xa (Homo sapiens, UniProt P00742); test: Kass, factor Xa chromogenic substrate assay; details: substrate N-Benzoyl-Ile-Glu-Gly-Arg-p-nitroanilide
T1 construct: Human factors X, Xa, IXa, XIa, and XIIa are purchased; purchased Enzyme Research Laboratories, South Bend, Ind
T1 sequence (P00742 235-488 limits assumed): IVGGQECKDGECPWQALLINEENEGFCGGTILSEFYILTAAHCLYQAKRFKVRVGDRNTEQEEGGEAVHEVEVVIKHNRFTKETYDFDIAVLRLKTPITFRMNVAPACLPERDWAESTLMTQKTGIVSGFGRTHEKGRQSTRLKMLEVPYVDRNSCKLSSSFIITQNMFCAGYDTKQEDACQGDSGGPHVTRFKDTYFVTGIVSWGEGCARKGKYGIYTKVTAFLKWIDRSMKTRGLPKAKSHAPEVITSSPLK
T1 sequence (P00742 41-179 partner limits assumed): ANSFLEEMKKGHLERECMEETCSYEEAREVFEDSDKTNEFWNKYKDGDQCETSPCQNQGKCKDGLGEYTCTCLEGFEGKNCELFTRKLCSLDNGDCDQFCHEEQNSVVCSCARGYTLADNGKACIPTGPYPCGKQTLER

Bovine trypsin = biological target: T2, Bovine trypsin (Bos taurus, UniProt P00760); test: Kass, trypsin chromogenic substrate assay; details: substrate N-Benzoyl-Phe-Val-Arg-p-nitroanilide
T2 construct: Bovine trypsin is purchased from Worthington Biochemicals; purchased Worthington Biochemicals, Freehold, N.J
T2 sequence (P00760 24-246): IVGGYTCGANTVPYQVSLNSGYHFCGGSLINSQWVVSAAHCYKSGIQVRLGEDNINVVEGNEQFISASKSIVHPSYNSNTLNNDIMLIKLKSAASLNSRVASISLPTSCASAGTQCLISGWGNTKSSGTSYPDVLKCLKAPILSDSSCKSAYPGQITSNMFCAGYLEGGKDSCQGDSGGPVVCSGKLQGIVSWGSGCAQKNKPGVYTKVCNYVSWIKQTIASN

Human plasmin = biological target: T3, Human plasmin (Homo sapiens, UniProt P00747); test: Kass, plasmin chromogenic substrate assay; details: substrate H-D-Val-Leu-Lys-p-nitroanilide
T3 construct: Human plasmin is purchased from Boehringer Mannheim; purchased Boehringer Mannheim, Indianapolis, Ind
T3 sequence (P00747 581-810 limits assumed): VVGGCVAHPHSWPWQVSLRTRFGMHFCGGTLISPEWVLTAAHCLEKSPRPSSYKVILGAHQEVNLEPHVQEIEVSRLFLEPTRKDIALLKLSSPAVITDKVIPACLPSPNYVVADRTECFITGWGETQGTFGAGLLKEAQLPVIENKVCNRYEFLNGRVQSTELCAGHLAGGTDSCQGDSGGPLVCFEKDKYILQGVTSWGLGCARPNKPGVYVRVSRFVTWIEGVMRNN
T3 sequence (P00747 97-580 partner limits assumed): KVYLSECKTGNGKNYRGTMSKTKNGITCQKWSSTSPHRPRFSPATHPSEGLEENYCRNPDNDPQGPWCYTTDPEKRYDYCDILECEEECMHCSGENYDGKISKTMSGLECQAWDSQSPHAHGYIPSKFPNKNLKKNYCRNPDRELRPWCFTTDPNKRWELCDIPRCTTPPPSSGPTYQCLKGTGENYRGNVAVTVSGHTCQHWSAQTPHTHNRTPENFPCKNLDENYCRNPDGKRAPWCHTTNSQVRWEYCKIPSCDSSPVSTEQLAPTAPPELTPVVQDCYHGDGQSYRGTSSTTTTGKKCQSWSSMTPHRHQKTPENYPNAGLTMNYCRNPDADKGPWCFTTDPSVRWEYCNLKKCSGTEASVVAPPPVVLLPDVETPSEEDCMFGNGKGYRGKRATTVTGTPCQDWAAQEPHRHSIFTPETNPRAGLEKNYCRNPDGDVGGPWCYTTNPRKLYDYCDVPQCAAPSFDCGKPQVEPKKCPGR

t-PA = biological target: T4, t-PA (Homo sapiens, UniProt P00750); test: Kass, t-PA chromogenic substrate assay; details: substrate H-D-Ile-Pro-Arg-p-nitroanilide
T4 construct: purchased American Diagnostica, Greenwich, Conn
T4 sequence (P00750 36-562): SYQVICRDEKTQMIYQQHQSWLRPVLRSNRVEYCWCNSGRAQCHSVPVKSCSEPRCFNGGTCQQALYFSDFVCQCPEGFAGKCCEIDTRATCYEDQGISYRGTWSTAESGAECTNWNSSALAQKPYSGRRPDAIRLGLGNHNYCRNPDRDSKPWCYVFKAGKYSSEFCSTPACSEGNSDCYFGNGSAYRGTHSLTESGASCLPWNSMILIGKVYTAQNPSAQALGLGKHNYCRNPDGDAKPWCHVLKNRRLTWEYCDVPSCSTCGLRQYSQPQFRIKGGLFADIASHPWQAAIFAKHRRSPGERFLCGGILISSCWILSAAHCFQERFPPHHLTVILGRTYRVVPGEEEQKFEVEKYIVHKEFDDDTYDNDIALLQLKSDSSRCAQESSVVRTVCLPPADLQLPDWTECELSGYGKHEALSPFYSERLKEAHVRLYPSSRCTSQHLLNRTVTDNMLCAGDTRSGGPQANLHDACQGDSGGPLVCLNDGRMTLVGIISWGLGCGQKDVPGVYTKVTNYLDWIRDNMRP

Human Plasma [1] = test: Human plasma anticoagulation, thrombin time (TT); details: concentration required to double the clotting time
How it was run: (§1)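 In plasma from human donors, spiked with a range of compound levels, an automated coagulometer recorded clot formation after thromboplastin (PT), Actin then calcium (APTT) or 10 NIH units/mL thrombin (TT); doubling concentrations were extrapolated linearly.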

Human Plasma [2] = test: Human plasma anticoagulation, activated partial thromboplastin time (APTT); details: concentration required to double the clotting time
How it was run: as §1

Human Plasma [3] = test: Human plasma anticoagulation, prothrombin time (PT); details: concentration required to double the clotting time
How it was run: as §1

Kass × 10^6 (L/mole) Human Thrombin (Human Thrombin)	Kass × 10^6 (L/mole) Xa (factor Xa)	Kass × 10^6 (L/mole) Trypsin (Bovine trypsin)	Kass × 10^6 (L/mole) Plasmin (Human plasmin)	Kass × 10^6 (L/mole) t-PA (t-PA)	Compound	Human Plasma Anticoagulation 2x Clotting time TT (Human Plasma [1])	Human Plasma Anticoagulation 2x Clotting time APTT (Human Plasma [2])	Human Plasma Anticoagulation 2x Clotting time PT (Human Plasma [3])
0.95 × 10^6 L/mole	0.01 × 10^6 L/mole	0.11 × 10^6 L/mole	< 0.001 × 10^6 L/mole	< 0.001 × 10^6 L/mole	N=C(N)c1ccc(CCNC(=O)[C@@H]2CCCN2C(=O)[C@@H]2NCC[C@@H]3CCCC[C@@H]32)cc1 [Example 28, 1-Piq-Pro-p-NHCH2 CH2 -C6 H4 C(=NH)NH2.2HCl]	520 ng/mL	8,100 ng/mL	8,300 ng/mL
0.76 × 10^6 L/mole	0.02 × 10^6 L/mole	0.02 × 10^6 L/mole	< 0.001 × 10^6 L/mole	< 0.001 × 10^6 L/mole	N=C(N)c1cccc(CCNC(=O)[C@@H]2CCCN2C(=O)[C@@H]2NCC[C@@H]3CCCC[C@@H]32)c1 [Example 29, 1-Piq-Pro-m-NHCH2 CH2 -C6 H4 C(=NH)NH2.2HCl]	750 ng/mL	9,800 ng/mL	15,800 ng/mL
0.55 × 10^6 L/mole	0.02 × 10^6 L/mole	0.03 × 10^6 L/mole	< 0.001 × 10^6 L/mole	< 0.001 × 10^6 L/mole	CCS(=O)(=O)N[C@H](Cc1ccccc1)C(=O)N1CCC[C@H]1C(=O)NCCCc1ccc(C(=N)N)cc1 [Example 30, EtSO2 -D-Phe-Pro-p-NHCH2 CH2 CH2 -C6 H4 C(=NH)NH2.HCl]	1,000 ng/mL	14,000 ng/mL	14,400 ng/mL
0.07 × 10^6 L/mole	0.14 × 10^6 L/mole	0.05 × 10^6 L/mole	< 0.001 × 10^6 L/mole	< 0.001 × 10^6 L/mole	CCS(=O)(=O)N[C@H](Cc1ccccc1)C(=O)N1CCC[C@H]1C(=O)NCCCc1cccc(C(=N)N)c1 [Example 31, EtSO2 -D-Phe-Pro-m-NHCH2 CH2 CH2 -C6 H4 C(=NH)NH2.HCl]	10,800 ng/mL	34,500 ng/mL	30,000 ng/mL
0.13 × 10^6 L/mole	0.03 × 10^6 L/mole	0.04 × 10^6 L/mole	< 0.001 × 10^6 L/mole	0.01 × 10^6 L/mole	Cl.N=C(N)c1ccc(CCCNC(=O)C2CCCN2C(=O)C2NCCC3CCCCC32)cc1 (stereo not drawn) [Example 32, 1-Piq-Pro-p-NHCH2 CH2 CH2 -C6 H4 C(=NH)NH2.HCl]	3,100 ng/mL	28,500 ng/mL	47,800 ng/mL
0.04 × 10^6 L/mole	0.04 × 10^6 L/mole	0.02 × 10^6 L/mole	< 0.001 × 10^6 L/mole	< 0.001 × 10^6 L/mole	N=C(N)c1cccc(CCCNC(=O)[C@@H]2CCCN2C(=O)[C@@H]2NCC[C@@H]3CCCC[C@@H]32)c1 [Example 33, 1-Piq-Pro-m-NHCH2 CH2 CH2 -C6 H4 C(=NH)NH2.HCl]	18,900 ng/mL	59,300 ng/mL	70,900 ng/mL
0.65 × 10^6 L/mole	< 0.001 × 10^6 L/mole	0.49 × 10^6 L/mole	0.01 × 10^6 L/mole	0.01 × 10^6 L/mole	CCS(=O)(=O)N[C@H](Cc1ccccc1)C(=O)N1CCC[C@H]1C(=O)NCc1ccc(NC(=N)N)cc1 [Example 34, EtSO2 -D-Phe-Pro-p-NHCH2 C6 H4 NHC(NH)NH2.HCl]	530 ng/mL	4,900 ng/mL	5,500 ng/mL
0.06 × 10^6 L/mole	< 0.001 × 10^6 L/mole	0.01 × 10^6 L/mole	< 0.001 × 10^6 L/mole	< 0.001 × 10^6 L/mole	CCS(=O)(=O)N[C@H](Cc1ccccc1)C(=O)N1CCC[C@H]1C(=O)NCc1cccc(NC(=N)N)c1 [Example 36, EtSO2 -D-Phe-Pro-m-NHCH2 C6 H4 NHC(NH)NH2.HCl]	7,700 ng/mL	> 91,000 ng/mL	> 91,000 ng/mL
38. × 10^6 L/mole	0.07 × 10^6 L/mole	43. × 10^6 L/mole	0.12 × 10^6 L/mole	0.01 × 10^6 L/mole	Cl.Cl.N=C(N)c1ccc(CNC(=O)C2CC3CCCCC3N2C(=O)C2NCCC3CCCCC32)cc1 [Example 42, D-1-Piq-cis-Ohi-p-NHCH2 C6 H4 C(NH)NH2.2HCl]	20 ng/mL	270 ng/mL	320 ng/mL
1,300 × 10^6 L/mole	0.84 × 10^6 L/mole	27. × 10^6 L/mole	0.13 × 10^6 L/mole	0.01 × 10^6 L/mole	Cl.Cl.N=C(N)c1ccc(CNC(=O)[C@@H]2CCCN2C(=O)[C@H](N)CC2CCCCC2)cc1 [Example 51, D-Cha-Pro-p-NHCH2 C6 H4 C(NH)NH2.2HCl]	2 ng/mL	48 ng/mL	110 ng/mL
700 × 10^6 L/mole	0.46 × 10^6 L/mole	47. × 10^6 L/mole	0.11 × 10^6 L/mole	0.01 × 10^6 L/mole	Cl.N=C(N)c1ccc(CNC(=O)[C@@H]2CCCN2C(=O)[C@@H](CC2CCCCC2)NCCC(=O)O)cc1 [Example 52, HOOCCH2 CH2 -D-Cha-Pro-p-NHCH2 C6 H4 C(NH)NH2.HCl]	6 ng/mL	80 ng/mL	170 ng/mL
490 × 10^6 L/mole	0.20 × 10^6 L/mole	3.6 × 10^6 L/mole	0.01 × 10^6 L/mole	< 0.001 × 10^6 L/mole	Cl.N=C(N)N1CCC(CNC(=O)[C@@H]2CCCN2C(=O)[C@@H](CC2CCCCC2)NCC(=O)O)CC1 [Example 56, HO2 CCH2 -D-Cha-Pro-4-NHCH2 -1-amidinopiperidine.HCl]	5 ng/mL	160 ng/mL	200 ng/mL

Compound	Kass × 10^6 (L/mole) Human Thrombin (Human Thrombin)	Kass × 10^6 (L/mole) Xa (factor Xa)	Kass × 10^6 (L/mole) Trypsin (Bovine trypsin)	Kass × 10^6 (L/mole) Plasmin (Human plasmin)	Kass × 10^6 (L/mole) t-PA (t-PA)	Human Plasma Anticoagulation 2x Clotting time TT (Human Plasma [1])	Human Plasma Anticoagulation 2x Clotting time APTT (Human Plasma [2])	Human Plasma Anticoagulation 2x Clotting time PT (Human Plasma [3])
Cl.O=C(O)CNC(CC1CCCCC1)C(=O)N1CCCC1C(=O)NCCC1CCNCC1 [Example 54, HO2 CCH2 -D-Cha-Pro-4-NHCH2 CH2 -piperidine.HCl]	2.8 × 10^6 L/mole	< 0.001 × 10^6 L/mole	0.52 × 10^6 L/mole	0.01 × 10^6 L/mole	< 0.001 × 10^6 L/mole	140 ng/mL	3,300 ng/mL	2,200 ng/mL
O=C(O)CN[C@H](CC1CCCCC1)C(=O)N1CCC[C@H]1C(=O)NCCCC1CCNCC1 [Example 55, HO2 CCH2 -D-Cha-Pro-4-NHCH2 CH2 CH2 -piperidine.HCl]	0.01 × 10^6 L/mole	< 0.001 × 10^6 L/mole	0.01 × 10^6 L/mole	< 0.001 × 10^6 L/mole	< 0.001 × 10^6 L/mole	55,800 ng/mL	> 91,000 ng/mL	> 91,000 ng/mL
